Assay results as given in patent publication US6838436B1, “Inhibitors of proteasomal activity for stimulating bone growth” (Osteoscreen Inc., priority 1998, dated 2005).

Test system: hair follicles of skin explants
Experiment: Skin explants from mice during telogen (Example 16)
Assay type: cell-based
Conditions: 72 hours
Source text: In the untreated control explants, the follicles were few and small.

For Nc1cc(N2CCCCC2)nc(N)[n+]1[O-] [Minoxidil], the “concentrations causing these changes, relative to the proteasome inhibitors” value was 10,000 fold.
